Among the data in the supplement of paper PMC10307832 are relative viability values, retold here.

Common to all, as to assay: relative viability (nuclei count vs DMSO), 5 days (fraction); higher = more cells survive
Compound in assay [1]: O=c1[nH]cc(F)c(=O)[nH]1 [5-Fluorouracil] + CS(=O)(=O)CCNCc1ccc(-c2ccc3ncnc(Nc4ccc(OCc5cccc(F)c5)c(Cl)c4)c3c2)o1 [Lapatinib] (partner 2 µM)
In short, it runs like this: (§1)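 Lung cancer cell lines were pin-tool dosed in 1536-well plates on the day after seeding, with either a lone drug or a fixed anchor-drug dose plus five library-drug doses (not always all listed) in √10 steps. Nuclei were counted on 4× images after 5 days. Relative viability is the ratio of treated-well to vehicle-well nuclei counts, with each value a median of duplicate plates.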

Compound in the assay “Sulindac + Dasatinib”: CC1=C(CC(=O)O)c2cc(F)ccc2/C1=C\c1ccc([S+](C)[O-])cc1 [Sulindac] + Cc1nc(Nc2ncc(C(=O)Nc3c(C)cccc3Cl)s2)cc(N2CCN(CCO)CC2)n1 [Dasatinib] (partner 0.075 µM)
An outline of the steps: as §1

Compound in the assay “Sulindac + Tozasertib”: CC1=C(CC(=O)O)c2cc(F)ccc2/C1=C\c1ccc([S+](C)[O-])cc1 [Sulindac] + Cc1cc(Nc2cc(N3CCN(C)CC3)nc(Sc3ccc(NC(=O)C4CC4)cc3)n2)n[nH]1 [Tozasertib] (partner 0.1 µM)
In short, it runs like this: as §1

Compound in assay [2]: O=c1[nH]cc(F)c(=O)[nH]1 [5-Fluorouracil] + CC(=O)Nc1cccc(-n2c(=O)n(C3CC3)c(=O)c3c(Nc4ccc(I)cc4F)n(C)c(=O)c(C)c32)c1 [Trametinib] (partner 0.02 µM)
In short, it runs like this:
as §1

As for UMC-11, the relative viability in assay [1] (first compound 0.02 µM) is 0.905; in assay [1] (first compound 0.2 µM), 0.746; in assay [1] (first compound 0.6325 µM), 0.434; in assay [1] (first compound 2 µM), 0.443; in the assay with Sulindac + Dasatinib (first compound 0.08 µM), 0.613; with Sulindac + Dasatinib (first compound 0.253 µM), 0.531. The relative viability was 0.362 with Sulindac + Dasatinib (first compound 0.8 µM); 0.46 with Sulindac + Dasatinib (first compound 2.53 µM); 0.507 with Sulindac + Dasatinib (first compound 8 µM); 0.204 in the assay with Sulindac + Tozasertib (first compound 0.08 µM); 0.192 in the assay with Sulindac + Tozasertib (first compound 0.253 µM); 0.228 in the assay with Sulindac + Tozasertib (first compound 0.8 µM). Further, the relative viability with Sulindac + Tozasertib (first compound 2.53 µM) stood at 0.2; with Sulindac + Tozasertib (first compound 8 µM) it was 0.204; in assay [2] (first compound 0.02 µM), 0.711; in assay [2] (first compound 0.2 µM) it was 0.673; in assay [2] (first compound 0.6325 µM), 0.448.
